According to patent US10208007B2, “Use of strigolactones and strigolactone analogs for treating proliferative conditions” (The State of Israel, Ministry of Agriculture & Rural …, priority 2011, dated 2019):

Columns and labels:
[1] = test system: pT308 AKT; test: Immunoblot of survival signaling; format: cell-based, human; details: MDA-MB-231 cells, 10 ppm
Protocol: Protein concentration was determined using the BCA Protein Assay (Pierce), and 20-50 μg of lysate were separated in a 4-12% SDS-PAGE gel. After transfer, membranes were blocked for 15-30 min at room temperature in 5% BSA (Sigma) in Tris-buffered saline containing 0.1% Tween-20. Primary antibody was incubated for either 1.5 hours at room temperature or overnight at 4° C. Secondary antibody was incubated for 30-45 min at room temperature, and proteins were visualized with West Pico Stable (Pierce). All antibodies were used at 1:1000 dilution unless otherwise stated. pT308AKT, AKT, pT180/Y182, pT183/Y185 P38MAPK, pP38MAPK, pT202/Y204 pERK1/2, ERK1, pT183/Y185, pJNK1/2, JNK1, pT71ATF2, pT581MSK1, pT14 Cdc2, Cdc2, pT68Chk2 (cell signaling), pT334MAPKAPK, pS82HSP27 (Cell Signaling Technology, Danvers, Mass.), α-tubulin (Biomarkers, 1:50,000), Cyclin B1 (Santa Cruz Biotechnologies) and horseradish peroxidase-conjugated anti-rabbit IgG and anti-mouse IgG (1:5,000, Pierce).
The PI3K/AKT pathway regulates a wide range of cellular functions including survival and proliferation. […] PDK1 phosphorylates AKT on T308, which is itself activated by phosphorylation on S241. Levels of pS241 PDK1 were reduced upon strigolactone treatment and correlated closely with reduced AKT phosphorylation observed in strigolactone treated cells (FIG. 14).

[2] = test system: A549; test: XTT viability assay; format: cell-based, human; details: A549, 3 days
Protocol: (§1) Viability was assayed after 3 days (XTT, ATCC). IC50 concentrations are indicated (Table 3 above).

[3] = test system: MDA-MB-436; test: XTT viability assay; format: cell-based, human; details: MDA-MB-436, 3 days
Protocol: as §1

[4] = test system: U20S cells; test: Strigolactone analog induced gene expression changes; format: cell-based, human; details: 5 ppm
Protocol: To further elucidate the transcriptional program by which strigolactone analogs may affect growth and survival of cancer cells, U20S cells were treated with ST-362 or MEB-55 (5 ppm) for either 6 or 24 hours to permit early and late gene expression changes to be distinguished. U20S cells were selected based on their enhanced sensitivity to strigolactone treatment (see FIG. 7). […] Up-regulation of cytokines (CCL3L3, GDF15) and growth factors (PGF), and down-regulation of TGFBR11 was also noted. Apoptosis regulating genes were also identified, including DDIT3, BIRC3 and BAG3. DDIT3 encodes a member of the CCAAT/enhancer-binding protein (C/EBP) family of transcription factors and functions as a dominant-negative inhibitor by forming heterodimers with other C/EBP members and preventing their DNA binding activity. DDIT3 is induced by stress, including DNA damage and DDIT3 over-expression can induce cell cycle arrest. After 6 hours, MEB-55 treatment was associated with increased expression of p21cip (CDKN1A), Cyclin F (CCNF), Cyclin A2 (CCNA2) and decreased expression of CDK6, whereas ST-362 induced only a modest down-regulation of Cyclin B1 (CCNB1). Therefore, changes in the expression profile of cell cycle regulators, was not a global hallmark of strigolactone exposure. The only exception was Cyclin G2 (CCNG2) whose expression was elevated in both ST-362 and MEB-55 treatment groups. Cyclin G2 is an unconventional cyclin homolog which is linked to growth inhibition and whose expression is induced by DNA damaging chemotherapeutics.

[5] = test system: MDA-MB-231 breast cancer cells; test: Xenograft tumor model; format: in vivo; details: SCID mice, 10 mg/kg iv twice a week, 4 treatments; for Mean tumor volume: control 24.2±5.57; for Tumor growth: p<0.0015
Protocol: To establish subcutaneous tumors, actively growing MDA-MB-231 breast cancer cells were harvested and 1.5×10^6 cells in 100 μl PBS were injected into the mammary fat pads of mice (n=15). The lesions were allowed to grow until their average sizes were approximately 4.5 mm×4.5 mm (about 3 weeks). The mice were then randomized into 3 groups for various treatments including vehicle control, and two strigolactone analogs: ST-362 and ST-357. Treatment started at day 1, 10 ppm (10 mg/Kg) twice a week for a total of 4 treatments. ST-362 and ST-357 were administered intravenously (iv). Body weight and tumor measurements were recorded twice weekly. Tumor cross-sectional area was calculated by multiplying the length×width and tumor volume was calculated by cubing the mean value of length and width. Results are summarized and plotted.
Data are expressed as mean±SD. Statistical significance was assessed by one-way ANOVA and Games-Howell Post Hoc test. A value of P<0.05 was considered significant and represents significance compared with untreated controls, unless indicated otherwise. Data was analyzed by Graphpad PRISMS and SPSS.

`CC1=CC(O/C=C2\Cc3c(n(C)c4ccccc34)C2=O)OC1=O` (racemic) [EG-5, (±) (2E)-4-methyl-2-(4-methyl-5-oxo-2,5-dihydrofuran-2-yloxymethylene)-1,4-dihydro-2H-cyclopenta[b]indol-3-one] was tested, and the “pT308 AKT levels / inhibition of AKT phosphorylation” value [1] was “slight delay in the inhibition of AKT phosphorylation, occurring between 8 and 24 hours”.
`CC1=CC(O/C=C2/C(=O)c3c(c4cc(-c5scc6c5OCCO6)ccc4n3C)C2C)OC1=O` (stereo not shown) [ST-362, (2E)-2-[(2,5-dihydro-4-methyl-5-oxofuran-2-yloxy)methylene]-1,2-dihydro-7-(2,3-dihydrothieno[3,4-b][1,4]dioxin-7-yl)-1,4-dimethyl-cyclopenta[b]indole-3-(4H)-one] was tested, and the “IC50 at 72 h” value [2] was 6.7 ppm, the “IC50 at 72 h” value [3] was 5.9 ppm and the “Fold-Change ABCB1” value ([4]; 6 hours) was 3.6 fold. For the same molecule, the “Fold-Change AHSA1” value ([4]; 6 hours) was 2.1 fold, the “Fold-Change ALDH1B1” value ([4]; 6 hours) was −2.1 fold and the “Fold-Change ATF3” value ([4]; 6 hours) was 2.2 fold. For the same molecule, the “Fold-Change BAG3” value ([4]; 6 hours) was 4.6 fold, the “Fold-Change BIRC3” value ([4]; 6 hours) was −2.4 fold and the “Fold-Change CCL3L3” value ([4]; 6 hours) was 3.7 fold. For the same molecule, the “Fold-Change CCNB1” value ([4]; 6 hours) was −2.1 fold, the “Fold-Change CCNG2” value ([4]; 6 hours) was 3.6 fold and the “Fold-Change CLDN12” value ([4]; 6 hours) was 2.3 fold. The “Fold-Change CYP24A1” value ([4]; 6 hours) was −2.6 fold, the “Fold-Change DDIT3” value ([4]; 6 hours) was 6.2 fold and the “Fold-Change FOXD1” value ([4]; 6 hours) was −2.4 fold. For the same molecule, the “Fold-Change FOXO4” value ([4]; 6 hours) was 2.5 fold, the “Fold-Change GDF15” value ([4]; 6 hours) was 7.6 fold and the “Fold-Change GEM” value ([4]; 6 hours) was 2.4 fold. The “Fold-Change HSPA1A” value ([4]; 6 hours) was 7.3 fold, the “Fold-Change HSPA1B” value ([4]; 6 hours) was 9.2 fold and the “Fold-Change HSPA1L” value ([4]; 6 hours) was 2.7 fold. The “Fold-Change HSPA6” value ([4]; 6 hours) was 79.8 fold, the “Fold-Change HSPA7” value ([4]; 6 hours) was 23.3 fold and the “Fold-Change HSPB8” value ([4]; 6 hours) was 2.7 fold. The “Fold-Change PGF” value ([4]; 6 hours) was 6.2 fold, the “Fold-Change PPP1R15A” value ([4]; 6 hours) was 2.7 fold and the “Fold-Change PTGS2” value ([4]; 6 hours) was 3.4 fold. The “Fold-Change SLC3A2” value ([4]; 6 hours) was 3.6 fold, the “Fold-Change SLC7A11” value ([4]; 6 hours) was 2.2 fold and the “Fold-Change SLC31A2” value ([4]; 6 hours) was 2.3 fold. The “Fold-Change SLC44A2” value ([4]; 6 hours) was 2.5 fold, the “Fold-Change TGFBR2” value ([4]; 6 hours) was −2.0 fold and the “Fold-Change ABCA13” value ([4]; 24 hours) was −2.8 fold. For the same molecule, the “Fold-Change AMPH” value ([4]; 24 hours) was −3.5 fold, the “Fold-Change BIRC3” value ([4]; 24 hours) was 2.6 fold and the “Fold-Change CCL20” value ([4]; 24 hours) was 6.6 fold. For the same molecule, the “Fold-Change CCNB1” value ([4]; 24 hours) was −2.2 fold, the “Fold-Change CCNG2” value ([4]; 24 hours) was 2.7 fold and the “Fold-Change CTGF” value ([4]; 24 hours) was 2.4 fold. The “Fold-Change CYR61” value ([4]; 24 hours) was 3.6 fold, the “Fold-Change DHRS2” value ([4]; 24 hours) was −2.5 fold and the “Fold-Change DUSP5” value ([4]; 24 hours) was 3.9 fold. The “Fold-Change E2F2” value ([4]; 24 hours) was −3.3 fold, the “Fold-Change EGR1” value ([4]; 24 hours) was 2.2 fold and the “Fold-Change ESM1” value ([4]; 24 hours) was 6.9 fold. The “Fold-Change GDF15” value ([4]; 24 hours) was 4.2 fold, the “Fold-Change HSPA5” value ([4]; 24 hours) was −2.8 fold and the “Fold-Change ITGA2” value ([4]; 24 hours) was 3.4 fold. For the same molecule, the “Fold-Change KIF20A” value ([4]; 24 hours) was −4.7 fold, the “Fold-Change LAMA1” value ([4]; 24 hours) was 3.0 fold and the “Fold-Change RN7SK” value ([4]; 24 hours) was 16.8 fold. The “Fold-Change SCG5” value ([4]; 24 hours) was 3.0 fold, the “Fold-Change SLC7A11” value ([4]; 24 hours) was 3.6 fold and the “Fold-Change SNORD3A” value ([4]; 24 hours) was 4.1 fold. For the same molecule, the “Fold-Change SNORD3C” value ([4]; 24 hours) was 4.0 fold, the “Fold-Change SNORD3D” value ([4]; 24 hours) was 4.8 fold and the “Fold-Change SPP1” value ([4]; 24 hours) was 3.9 fold. The “Fold-Change TGFBI” value ([4]; 24 hours) was −3.4 fold, the Mean tumor volume [5] was 17.7±4.28 mm^3 and the Tumor growth [5] was “effective in inhibiting tumor growth”.
`CC1=CC(O/C=C2\Cc3c(n(C)c4cc(-c5cccs5)ccc34)C2=O)OC1=O` (racemic) [MEB-55, (±) 2E-4-methyl-2-(4-methyl-5-oxo-2,5-dihydrofuran-2-yloxymethylene)-6-thiophen-2-yl-1,4-dihydro-2H-cyclopenta[b]indol-3-one] was tested, and the “IC50 at 72 h” value [2] was 6.9 ppm, the “IC50 at 72 h” value [3] was 8.3 ppm and the “Fold-Change ABCB1” value ([4]; 6 hours) was 8.1 fold. The “Fold-Change AHSA1” value ([4]; 6 hours) was 2.6 fold, the “Fold-Change ALDH1B1” value ([4]; 6 hours) was −3.1 fold and the “Fold-Change ATF3” value ([4]; 6 hours) was 4.0 fold. The “Fold-Change BAG3” value ([4]; 6 hours) was 7.7 fold, the “Fold-Change BIRC3” value ([4]; 6 hours) was −3.2 fold and the “Fold-Change CCNG2” value ([4]; 6 hours) was 3.1 fold. For the same molecule, the “Fold-Change CLDN12” value ([4]; 6 hours) was 2.5 fold, the “Fold-Change CYP24A1” value ([4]; 6 hours) was −3.6 fold and the “Fold-Change DDIT3” value ([4]; 6 hours) was 14.1 fold. The “Fold-Change FGF2” value ([4]; 6 hours) was 2.1 fold, the “Fold-Change FOXD1” value ([4]; 6 hours) was −2.7 fold and the “Fold-Change FOXO4” value ([4]; 6 hours) was 2.2 fold. For the same molecule, the “Fold-Change GDF15” value ([4]; 6 hours) was 19.0 fold, the “Fold-Change GEM” value ([4]; 6 hours) was 4.9 fold and the “Fold-Change HSPA1A” value ([4]; 6 hours) was 12.4 fold. The “Fold-Change HSPA1B” value ([4]; 6 hours) was 12.4 fold, the “Fold-Change HSPA1L” value ([4]; 6 hours) was 3.9 fold and the “Fold-Change HSPA6” value ([4]; 6 hours) was 158.7 fold. The “Fold-Change HSPA7” value ([4]; 6 hours) was 55.7 fold, the “Fold-Change HSPB8” value ([4]; 6 hours) was 3.6 fold and the “Fold-Change PGF” value ([4]; 6 hours) was 7.0 fold. For the same molecule, the “Fold-Change PPP1R15A” value ([4]; 6 hours) was 3.7 fold, the “Fold-Change PTGS2” value ([4]; 6 hours) was 6.9 fold and the “Fold-Change SLC3A2” value ([4]; 6 hours) was 3.4 fold. The “Fold-Change SLC7A11” value ([4]; 6 hours) was 2.1 fold, the “Fold-Change SLC44A2” value ([4]; 6 hours) was 2.1 fold and the “Fold-Change TGFBR2” value ([4]; 6 hours) was −2.3 fold. The “Fold-Change ABCA13” value ([4]; 24 hours) was −2.6 fold, the “Fold-Change AMPH” value ([4]; 24 hours) was −2.7 fold and the “Fold-Change BIRC3” value ([4]; 24 hours) was 2.4 fold. For the same molecule, the “Fold-Change CCL20” value ([4]; 24 hours) was 11.9 fold, the “Fold-Change CTGF” value ([4]; 24 hours) was 2.1 fold and the “Fold-Change CYR61” value ([4]; 24 hours) was 2.2 fold. For the same molecule, the “Fold-Change DHRS2” value ([4]; 24 hours) was −2.3 fold, the “Fold-Change DUSP5” value ([4]; 24 hours) was 3.8 fold and the “Fold-Change E2F2” value ([4]; 24 hours) was −2.2 fold. The “Fold-Change EGR1” value ([4]; 24 hours) was 2.7 fold, the “Fold-Change ESM1” value ([4]; 24 hours) was 21.2 fold and the “Fold-Change GDF15” value ([4]; 24 hours) was 2.2 fold. For the same molecule, the “Fold-Change HSPA5” value ([4]; 24 hours) was −2.1 fold, the “Fold-Change ITGA2” value ([4]; 24 hours) was 3.6 fold and the “Fold-Change KIF20A” value ([4]; 24 hours) was −2.4 fold. The “Fold-Change LAMA1” value ([4]; 24 hours) was 2.1 fold, the “Fold-Change RN7SK” value ([4]; 24 hours) was 15.3 fold and the “Fold-Change SCG5” value ([4]; 24 hours) was 4.9 fold. The “Fold-Change SLC7A11” value ([4]; 24 hours) was 4.1 fold, the “Fold-Change SNORD3A” value ([4]; 24 hours) was 4.2 fold and the “Fold-Change SNORD3C” value ([4]; 24 hours) was 4.8 fold. The “Fold-Change SNORD3D” value ([4]; 24 hours) was 4.8 fold, the “Fold-Change SPP1” value ([4]; 24 hours) was 6.6 fold and the “Fold-Change TGFBI” value ([4]; 24 hours) was −2.0 fold. The “pT308 AKT levels / inhibition of AKT phosphorylation” value [1] was “decreased dramatically between 4 and 8 hours”.
For `CC1=CC(O/C=C2/C(=O)c3c(c4cc(-c5cccs5)ccc4n3C)C2C)OC1=O` (stereo not shown) [ST-357, (2E)-1,4-dimethyl-2-((4-methyl-5-oxo-2,5-dihydrofuran-2-yloxy)methylene)-7-(thiophen-2-yl)-1,2-dihydrocyclopenta[b]indol-3(4H)-one], the Mean tumor volume [5] was 15.9±2.61 mm^3 and the Tumor growth [5] was “effective in inhibiting tumor growth”.
